Data reported in ChEMBL document CHEMBL3393039, “Anthranilic acid derivatives as nuclear receptor modulators--development of novel PPAR selective and dual PPAR/FXR ligands” (Bioorg Med Chem, 2015).
Values after ≈ are worked out from the molar mass of the structure shown. Active and inactive are the calls of the source. The calls are words filed in the database; no cut-off is given here.

Tests used:
[1] = target: T1, Peroxisome proliferator-activated receptor gamma (Homo sapiens, UniProt P37231); test: Transactivation of Gal4-tagged PPARgamma ligand binding domain (unknown origin) expressed in COS7 cells measured after overnight incubation by luciferase reporter gene assay; type: cell-based, COS-7
T1 sequence (P37231 whole entry): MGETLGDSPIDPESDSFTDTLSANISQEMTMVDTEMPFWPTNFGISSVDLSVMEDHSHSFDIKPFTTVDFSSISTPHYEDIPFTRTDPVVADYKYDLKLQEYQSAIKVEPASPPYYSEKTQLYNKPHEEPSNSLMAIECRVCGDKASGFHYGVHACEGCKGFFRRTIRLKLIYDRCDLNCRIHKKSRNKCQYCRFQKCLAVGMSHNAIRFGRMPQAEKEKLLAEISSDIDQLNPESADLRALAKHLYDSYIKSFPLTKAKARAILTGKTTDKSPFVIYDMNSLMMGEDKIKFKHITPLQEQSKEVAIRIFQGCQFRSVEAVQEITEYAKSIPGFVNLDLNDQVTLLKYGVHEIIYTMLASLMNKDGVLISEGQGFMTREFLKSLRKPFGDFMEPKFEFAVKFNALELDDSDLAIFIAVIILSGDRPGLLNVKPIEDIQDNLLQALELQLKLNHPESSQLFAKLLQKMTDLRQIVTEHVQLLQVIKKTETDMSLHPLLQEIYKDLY

[2] = target: T2, Peroxisome proliferator-activated receptor delta (Homo sapiens) (UniProt Q03181); test: Transactivation of Gal4-tagged PPARdelta ligand binding domain (unknown origin) expressed in COS7 cells at 30 uM measured after overnight incubation by luciferase reporter gene assay; type: cell-based; details: COS-7
T2 sequence (whole entry): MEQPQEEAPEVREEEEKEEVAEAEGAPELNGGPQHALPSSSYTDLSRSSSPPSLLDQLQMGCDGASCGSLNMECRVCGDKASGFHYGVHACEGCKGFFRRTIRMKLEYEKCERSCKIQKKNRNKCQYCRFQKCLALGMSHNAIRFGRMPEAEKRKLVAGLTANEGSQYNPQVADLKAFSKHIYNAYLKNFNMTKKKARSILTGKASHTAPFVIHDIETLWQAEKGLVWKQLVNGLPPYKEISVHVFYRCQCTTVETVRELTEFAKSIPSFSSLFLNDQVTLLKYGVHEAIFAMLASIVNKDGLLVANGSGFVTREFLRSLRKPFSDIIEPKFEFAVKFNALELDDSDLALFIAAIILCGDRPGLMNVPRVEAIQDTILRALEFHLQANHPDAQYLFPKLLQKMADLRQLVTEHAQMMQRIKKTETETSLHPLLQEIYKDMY

[3] = target: T3, Peroxisome proliferator-activated receptor alpha (Homo sapiens) (UniProt Q07869); test: Transactivation of Gal4-tagged PPARalpha ligand binding domain (unknown origin) expressed in COS7 cells at 30 uM measured after overnight incubation by luciferase reporter gene assay; type: cell-based; details: COS-7
T3 sequence (whole entry): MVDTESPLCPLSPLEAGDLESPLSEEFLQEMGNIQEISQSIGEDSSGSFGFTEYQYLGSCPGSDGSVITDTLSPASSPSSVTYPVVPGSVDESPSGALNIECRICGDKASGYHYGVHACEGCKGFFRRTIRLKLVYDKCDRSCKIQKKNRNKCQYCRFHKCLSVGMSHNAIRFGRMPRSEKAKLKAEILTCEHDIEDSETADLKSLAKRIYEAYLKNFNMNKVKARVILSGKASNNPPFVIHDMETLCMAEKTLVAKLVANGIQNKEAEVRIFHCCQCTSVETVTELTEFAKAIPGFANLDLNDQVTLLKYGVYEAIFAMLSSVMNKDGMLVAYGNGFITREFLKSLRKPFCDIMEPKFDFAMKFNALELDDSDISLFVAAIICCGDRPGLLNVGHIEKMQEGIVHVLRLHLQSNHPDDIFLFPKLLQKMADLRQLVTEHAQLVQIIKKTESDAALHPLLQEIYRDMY

[4] = Antiproliferative activity against human HepG2 cells assessed as cell viability at 50 uM after 48 hrs by WST1 assay (reference value: 100%); type: cell-based; details: read-out: Activity
[5] = Cytotoxic activity against human HepG2 cells assessed as LDH release at 10 uM after 48 hrs by LDH release assay (reference value: 100%)
[6] = target: T4, Peroxisome proliferator-activated receptor gamma (Homo sapiens) (UniProt P37231); test: Transactivation of Gal4-tagged PPARgamma ligand binding domain (unknown origin) expressed in COS7 cells measured after overnight incubation by luciferase reporter gene assay relative to piaglitazone; type: cell-based; details: Chlorocebus aethiops; COS-7
T4 sequence (whole entry): T1 sequence (P37231 whole entry)

[7] = Cytotoxic activity against human HepG2 cells assessed as LDH release at 5 uM after 48 hrs by LDH release assay (reference value: 100%)
[8] = target: T5, Bile acid receptor (Homo sapiens) (UniProt Q96RI1); test: Transactivation of human FXR expressed in human HeLa cells at 30 uM incubated for 24 hrs by luciferase reporter gene assay; type: cell-based
T5 sequence (whole entry): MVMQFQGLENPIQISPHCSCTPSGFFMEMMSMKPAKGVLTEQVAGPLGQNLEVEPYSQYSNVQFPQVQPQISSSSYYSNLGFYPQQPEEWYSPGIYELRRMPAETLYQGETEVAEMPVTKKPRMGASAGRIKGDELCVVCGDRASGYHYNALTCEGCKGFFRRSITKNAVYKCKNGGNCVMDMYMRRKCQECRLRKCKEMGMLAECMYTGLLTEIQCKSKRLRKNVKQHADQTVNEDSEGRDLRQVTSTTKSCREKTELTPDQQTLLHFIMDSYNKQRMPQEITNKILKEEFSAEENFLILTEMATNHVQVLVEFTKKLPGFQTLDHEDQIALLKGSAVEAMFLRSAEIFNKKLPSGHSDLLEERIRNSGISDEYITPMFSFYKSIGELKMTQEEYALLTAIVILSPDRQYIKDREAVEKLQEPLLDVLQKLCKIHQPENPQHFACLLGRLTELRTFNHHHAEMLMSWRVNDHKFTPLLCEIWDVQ

[9] = Antiproliferative activity against human HepG2 cells assessed as cell viability at 10 uM after 48 hrs by WST1 assay (reference value: 100%); type: cell-based; details: read-out: Activity
[10] = Aqueous solubility of the compound; type: physicochemical; details: aqueous medium (not specified further)
[11] = Cytotoxic activity against human HepG2 cells assessed as LDH release at 30 uM after 48 hrs by LDH release assay (reference value: 100%)
[12] = Antiproliferative activity against human HepG2 cells assessed as cell viability at 5 uM after 48 hrs by WST1 assay (reference value: 100%); type: cell-based; details: read-out: Activity
[13] = target: T3, Peroxisome proliferator-activated receptor alpha (Homo sapiens); test: Transactivation of Gal4-tagged PPARalpha ligand binding domain (unknown origin) expressed in COS7 cells at 10 uM measured after overnight incubation by luciferase reporter gene assay; type: cell-based; details: COS-7
[14] = target: T5, Bile acid receptor (Homo sapiens); test: Transactivation of human FXR expressed in human HeLa cells incubated for 24 hrs by luciferase reporter gene assay relative to GW4064; type: cell-based
[15] = target: T6, Peroxisome proliferator-activated receptor alpha (Homo sapiens, UniProt Q07869); test: Transactivation of Gal4-tagged PPARalpha ligand binding domain (unknown origin) expressed in COS7 cells measured after overnight incubation by luciferase reporter gene assay; type: cell-based, COS-7
T6 sequence (Q07869 whole entry): T3 sequence (whole entry)

[16] = target: T2, Peroxisome proliferator-activated receptor delta (Homo sapiens); test: Transactivation of Gal4-tagged PPARdelta ligand binding domain (unknown origin) expressed in COS7 cells measured after overnight incubation by luciferase reporter gene assay relative to L165,041; type: cell-based; details: Chlorocebus aethiops; COS-7
Bile acid receptor = target: T7, Bile acid receptor (Homo sapiens, UniProt Q96RI1); test: Transactivation of human FXR expressed in human HeLa cells incubated for 24 hrs by luciferase reporter gene assay; type: cell-based
T7 sequence (Q96RI1 whole entry): T5 sequence (whole entry)

[17] = target: T8, Peroxisome proliferator-activated receptor delta (Homo sapiens, UniProt Q03181); test: Transactivation of Gal4-tagged PPARdelta ligand binding domain (unknown origin) expressed in COS7 cells measured after overnight incubation by luciferase reporter gene assay; type: cell-based, COS-7
T8 sequence (Q03181 whole entry): T2 sequence (whole entry)

[18] = target: T4, Peroxisome proliferator-activated receptor gamma (Homo sapiens); test: Transactivation of Gal4-tagged PPARgamma ligand binding domain (unknown origin) expressed in COS7 cells at 10 uM measured after overnight incubation by luciferase reporter gene assay; type: cell-based; details: COS-7
[19] = target: T4, Peroxisome proliferator-activated receptor gamma (Homo sapiens); test: Transactivation of Gal4-tagged PPARgamma ligand binding domain (unknown origin) expressed in COS7 cells at 30 uM measured after overnight incubation by luciferase reporter gene assay; type: cell-based; details: COS-7

Cc1ccc(C(=O)O)cc1NC(=O)c1ccccc1NC(=O)c1ccc(C(C)(C)C)cc1
EC50 [1]: 6.3 µM
Activity [2]: inactive
Activity [3]: inactive
viability at 48 h, 50 µM [4]: 72%
LDH release (% cytotoxicity) at 48 h, 10 µM [5]: 0.7%
max activation [6]: 163%
LDH release (% cytotoxicity) at 48 h, 5 µM [7]: -1.3%
Activity [8]: inactive
viability at 48 h, 10 µM [9]: 92.2%
solubility [10]: 2.6 µM (≈ 1.12 µg/mL)
LDH release (% cytotoxicity) at 48 h, 30 µM [11]: 37.3%
viability at 48 h, 5 µM [12]: 95.7%

CC(C)(C)c1ccc(C(=O)Nc2ccccc2C(=O)Nc2cc(C(=O)O)ccc2Cl)cc1
max activation [13]: 16%
EC50 [1]: 1.9 µM
Activity [2]: inactive
max activation [14]: 16%
max activation [6]: 154%

O=C(O)Cc1cccc(NC(=O)c2ccccc2NC(=O)c2ccc(SC(F)(F)F)cc2)c1
EC50 [1]: 4.4 µM
EC50 [15]: 1.3 µM
max activation [16]: 64%
max activation [14]: 23%
max activation [6]: 158%
EC50 (Bile acid receptor): 7000 nM
EC50 [17]: 2.3 µM

Cc1ccc(NC(=O)c2ccccc2NC(=O)c2ccc(C(C)(C)C)cc2)cc1C(=O)O
EC50 [1]: 5 µM
Activity [2]: inactive
EC50 [15]: 0.21 µM
viability at 48 h, 50 µM [4]: 82.5%
max activation [14]: 22%
LDH release (% cytotoxicity) at 48 h, 10 µM [5]: 2.2%
max activation [6]: 98%
LDH release (% cytotoxicity) at 48 h, 5 µM [7]: -0.1%
viability at 48 h, 10 µM [9]: 99.6%
solubility [10]: 4.9 µM (≈ 2.11 µg/mL)
LDH release (% cytotoxicity) at 48 h, 30 µM [11]: 28.4%
viability at 48 h, 5 µM [12]: 106%

O=C(O)CCCCCNC(=O)c1ccccc1NC(=O)c1ccc2ccccc2c1
max activation [13]: 38%
Activity [2]: inactive
max activation [18]: 40%

CC(C)(C)c1ccc(C(=O)Nc2ccccc2C(=O)Nc2cccc(C(N)=O)c2)cc1
Activity [2]: inactive
Activity [3]: inactive
Activity [19]: inactive
max activation [14]: 15%
EC50 (Bile acid receptor): 70 nM

CC(C)(C)c1ccc(C(=O)Nc2ccccc2C(=O)Nc2cc(C(=O)O)ccc2F)cc1
max activation [13]: 17%
EC50 [1]: 5.8 µM
Activity [2]: inactive
max activation [14]: 12%
max activation [6]: 735%

O=C(O)Cc1ccc(NC(=O)c2ccccc2NC(=O)c2ccc3ccccc3c2)cc1
Activity [2]: inactive
Activity [3]: inactive
max activation [18]: 25%

CC(C)(C)c1ccc(C(=O)Nc2ccccc2C(=O)Nc2cccc(CCC(=O)O)c2)cc1
EC50 [1]: 5 µM
Activity [2]: inactive
EC50 [15]: 5.4 µM
max activation [14]: 22%
max activation [6]: 175%
EC50 (Bile acid receptor): 60 nM

O=C(O)CCCNC(=O)c1ccccc1NC(=O)c1cccc2ccccc12
max activation [13]: 12%
EC50 [1]: 41 µM
Activity [2]: inactive
max activation [6]: 397%
Activity [8]: inactive

COc1ccc(C(=O)Nc2ccccc2C(=O)Nc2cccc(CC(=O)O)c2)cc1
max activation [13]: 17.3%
max activation [16]: 54%
Activity [8]: inactive
EC50 [17]: 5.9 µM
max activation [18]: 13.2%

O=C(O)Cc1cccc(NC(=O)c2ccccc2NC(=O)c2ccc(C(F)(F)F)cc2)c1
EC50 [1]: 9.4 µM
EC50 [15]: 5.4 µM
max activation [16]: 58%
max activation [14]: 14.8%
max activation [6]: 161%
EC50 (Bile acid receptor): 2600 nM
EC50 [17]: 2.2 µM

O=C(O)c1cccc(NC(=O)c2ccc(Cl)cc2NC(=O)c2ccc(C(F)(F)F)cc2)c1
EC50 [1]: 8.7 µM
EC50 [15]: 18.6 µM
max activation [16]: 16.5%
max activation [14]: 17.8%
max activation [6]: 420%
EC50 (Bile acid receptor): 2100 nM
EC50 [17]: 3.4 µM

CSc1ccc(C(=O)Nc2ccccc2C(=O)Nc2cccc(CC(=O)O)c2)cc1
EC50 [1]: 17.4 µM
EC50 [15]: 14.4 µM
max activation [16]: 133%
max activation [14]: 16.9%
max activation [6]: 200%
EC50 (Bile acid receptor): 8500 nM
EC50 [17]: 7.4 µM

O=C(O)c1cccc(NC(=O)c2cc(Cl)ccc2NC(=O)c2ccc(C(F)(F)F)cc2)c1
max activation [13]: 25%
EC50 [1]: 4.7 µM
max activation [16]: 24%
max activation [14]: 16.9%
max activation [6]: 415%
EC50 (Bile acid receptor): 3400 nM
EC50 [17]: 6.3 µM

CCc1ccc(C(=O)Nc2ccccc2C(=O)NCCCC(=O)O)cc1
Activity [2]: inactive
EC50 [15]: 15.7 µM
max activation [18]: 39%

CN(CCCC(=O)O)C(=O)c1ccccc1NC(=O)c1ccc2ccccc2c1
Activity [2]: inactive
Activity [3]: inactive
Activity [19]: inactive
Activity [8]: inactive

O=C(O)c1ccc(CNC(=O)c2ccccc2NC(=O)c2ccc3ccccc3c2)cc1
max activation [13]: 17%
Activity [2]: inactive
max activation [18]: 56%

O=C(O)c1cccc(NC(=O)c2ccccc2NC(=O)c2cc(C(F)(F)F)cc(C(F)(F)F)c2)c1
max activation [13]: 15%
EC50 [1]: 11 µM
Activity [2]: inactive
max activation [6]: 114%
Activity [8]: inactive

O=C(O)CCc1cccc(NC(=O)c2ccccc2NC(=O)c2ccc(C(F)(F)F)cc2)c1
EC50 [1]: 6.9 µM
EC50 [15]: 5.9 µM
max activation [16]: 120%
max activation [14]: 13%
max activation [6]: 70%
EC50 (Bile acid receptor): 2300 nM
EC50 [17]: 6.8 µM
